Results published in PubChem BioAssay (NCI).
“And” between values parts separate entries of the source, which are not always exact repeats. Equal entries are not always repeated.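 All cell lines were grown in 96-well plates and treated with compound for 48 hours. GI50 is the concentration that inhibits growth by half. TGI: total growth inhibition.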

What was measured:
Assay in all cases: NCI-60 cell line screen, 48 h
A498 renal = system: A498 renal
CAKI-1 renal = system: CAKI-1 renal
MOLT-4 leukemia = system: MOLT-4 leukemia
OVCAR-3 ovarian = system: OVCAR-3 ovarian
SF-268 CNS = system: SF-268 CNS
SK-MEL-28 melanoma = system: SK-MEL-28 melanoma
SK-OV-3 ovarian = system: SK-OV-3 ovarian
SN12C renal = system: SN12C renal
TK-10 renal = system: TK-10 renal
OVCAR-4 ovarian = system: OVCAR-4 ovarian

Row | SMILES | GI50 (A498 renal) | TGI (A498 renal) | GI50 (CAKI-1 renal) | TGI (CAKI-1 renal) | GI50 (MOLT-4 leukemia) [µM] | TGI (MOLT-4 leukemia) [µM] | GI50 (OVCAR-3 ovarian) [µM] | TGI (OVCAR-3 ovarian) [µM] | GI50 (SF-268 CNS) | TGI (SF-268 CNS) | GI50 (SK-MEL-28 melanoma) [µM] | TGI (SK-MEL-28 melanoma) [µM] | GI50 (SK-OV-3 ovarian) [µM] | TGI (SK-OV-3 ovarian) [µM] | GI50 (SN12C renal) [µM] | TGI (SN12C renal) | GI50 (TK-10 renal) [µM] | TGI (TK-10 renal) [µM] | TGI (OVCAR-4 ovarian) [µM] | GI50 (OVCAR-4 ovarian) [µM]
1 | O=C1c2cccnc2-c2nc(-c3ccncc3)cc3c2c1nc1ccccc13 | 38.5 µM | > 100 µM | 16.4 µM | 34.8 µM | 5.14 | > 100 | 7.51 | 20 | 15.1 µM | 34.5 µM | > 100 | > 100 | > 100 | > 100 | 20 | 47.5 µM | 19.5 | 40.2 |  | 
2 | CC1(C)OC2COC3(CNO)OC(C)(C)OC3C2O1 (centres undefined) |  | > 100 µM |  | > 100 µM |  | > 100 |  | > 100 |  | > 100 µM |  | > 100 |  | > 100 |  | > 100 µM |  | > 100 | > 100 | 
3 | C=CCC1[C@@H](C(C)(C)C(C(C)=O)C(=O)C(=O)OC)OC(C(C)(C)C)N1C(=O)OC (some centres undefined) |  | > 100 µM |  |  |  | 70.9 |  | > 100 |  | > 100 µM |  | > 100 |  | > 100 |  | > 100 µM |  | > 100 | > 100 | 
4 | Cc1cc2c(Br)cc(Br)c(O)c2nc1C(=O)c1ccccc1 |  | > 100 µM |  | > 100 µM |  | > 100 |  | > 79 |  | > 100 µM |  | > 100 |  |  |  | > 100 µM |  | > 100 | > 100 | 
5 | O=c1ncccn1C1C=C(CO)C(O)C1O (centres undefined) |  | > 50 µM |  | > 50 µM |  | > 50 |  | > 50 |  | > 50 µM |  | > 50 |  | > 50 |  |  |  | > 50 | > 50 | 
6 | Cc1nnc(N/N=C(/C(=O)C(C#N)c2ccccc2)C(C#N)c2ccccc2)n1N (centres undefined) |  |  |  | > 56 µM |  | 9.28 |  | 53.3 |  | > 61.3 µM |  | 36.1 |  | > 100 |  | 16.6 µM |  | > 100 | > 54.9 | 
7 | CCCCCCCCCCCCCC(=O)OCC1OC(=O)CC1O (centres undefined) |  | > 100 µM |  | > 100 µM |  | > 100 |  | > 100 |  | > 100 µM |  |  |  | > 100 |  | > 100 µM |  | > 100 | > 100 | 
8 | CCOC(=O)/C(=C/c1cccc(OC)c1)N(CC)CC |  | > 100 µM |  | > 100 µM |  | > 100 |  | > 100 |  | > 100 µM |  | > 100 |  | > 100 |  |  |  | > 100 | > 100 | 
9 | OC(c1ccc(Br)cc1)(c1cccs1)C1CC1 (centres undefined) |  | 45.2 µM |  | 69.6 µM |  | 67 |  | 35.9 |  | 45.4 µM |  | 51.3 |  | > 100 |  |  |  | 76.4 | 66.7 | 
10 | CC(=O)OC1COC(n2c(=S)n(-c3ccccc3)c(=O)c3cc(Br)ccc32)C(OC(C)=O)C1OC(C)=O (centres undefined) |  | > 100 µM |  | > 100 µM |  | > 100 |  | > 100 |  | > 100 µM |  | > 100 |  | > 100 |  | > 100 µM |  |  | 31.6 | 
11 | CNC(=O)c1cc2c(Oc3ccc(NC(=O)C4(C(=O)Nc5ccc(F)cc5)CC4)cc3)ccnc2cc1OC | 1.28 µM | 3.27 µM | 1.52 µM | 3.33 µM | 2.23 | 8.18 | 3.48 | > 100 | 3.06 µM | > 100 µM | 3.68 | > 100 | 2.94 | 9.33 | 1.1 | > 100 µM |  |  | > 100 | 3.55
12 | COc1ccc(/C=C2/CCc3cc4ccc(OC)cc4[o+]c32)c(O)c1 |  |  | 10.7 µM | 22.5 µM | 3.71 | > 100 | 2.48 | 6.09 | 2.8 µM | 9.83 µM | 2.3 | 5.62 | 12.3 | 25.3 | 2.51 | 7.93 µM | 11.7 | 24.6 | 20.6 | 5.45
13 | CCOC(=O)C(=O)Nc1ccccc1C(F)(F)F |  | > 100 µM |  | > 100 µM |  |  |  | > 100 |  | > 100 µM |  | > 100 |  | > 100 |  | > 100 µM |  | > 100 | > 100 | 
14 | C=CCSc1nc2ccccc2c(=O)n1Cc1ccco1 |  | > 100 µM |  | > 100 µM |  |  |  | > 100 |  | > 100 µM |  | > 100 |  | > 100 |  | > 100 µM |  | > 100 | > 100 | 
15 | c1ccc2nc3c(cc4ccccn43)nc2c1 | 31.4 µM | > 100 µM | 55.2 µM | > 100 µM | 53.1 | > 100 | > 100 | > 100 | > 100 µM | > 100 µM | > 100 | > 100 | 97.4 | > 100 | 70 | > 100 µM | 8.36 | 55.1 |  | 
16 | CCN(CC)CCNC(=O)c1cn2ncnc(Oc3ccc(NC(=O)Nc4ccc(Cl)c(C(F)(F)F)c4)c(F)c3)c2c1C | 1.84 µM | 3.28 µM | 1.69 µM | 3.13 µM |  |  | 1.77 | 3.21 | 1.92 µM | 3.74 µM | 1.47 | 2.79 | 1.66 | 3.26 | 1.69 | 3.4 µM | 2.38 | 4.04 | 3.36 | 1.74
17 | c1ccc(Cn2cnc3ccc(-c4nc(-c5ccc6c(c5)ncn6C5CCCCC5)cn5ccnc45)cc32)cc1 | 1.86 µM | 3.57 µM | 2.45 µM | > 100 µM | 1.67 | > 100 | 2.27 | 5.8 | 2.48 µM | > 100 µM |  |  |  |  |  |  | 3.52 | > 100 | > 100 | 3.06
18 | CCC1=C[C@@H]2CN(C1)Cc1c([nH]c3ccccc13)[C@@](C(=O)OC)(c1cc3c(cc1OC)N(C)[C@H]1[C@@](O)(C(=O)OC)[C@H](OC(C)=O)[C@]4(CC)[C@@H]5C[C@@H]5CN5CC[C@]31[C@@H]54)C2 | < 0.005 µM and 0.0144 µM | 0.0112 µM and 0.0857 µM | 0.0319 µM and 0.0818 µM | 6.17 µM and 20.5 µM | < 0.005 |  |  |  | < 0.005 µM and 0.0151 µM | 8.94 µM and 12.8 µM | < 0.005 | 7.96 | < 0.005 |  |  | 7.54 µM and 18.5 µM |  |  | 10.7 | < 0.005
19 | O=C(NC12CC3CC(CC(C3)C1)C2)C(=O)c1c[nH]c2ccc(Cl)cc12 |  |  |  |  |  | > 100 |  | 57.6 |  | > 100 µM |  | > 100 |  | > 100 |  | > 100 µM |  |  | 56 | 
